The text below walks through data of patent US20140155376A1, “PYRROLOPYRAZINE KINASE INHIBITORS” (Hoffmann-La Roche Inc., priority 2010, published 2014).

The target in this test is T1, JAK3 (recombinant human kinase domain; h-jak3(810-1124)) (Homo sapiens, UniProt P52333).
T1 construct: h-jak3(810- 1124)-sf9-c; made in house; host or cells: Sf9 insect cells
T1 sequence (P52333 810-1124): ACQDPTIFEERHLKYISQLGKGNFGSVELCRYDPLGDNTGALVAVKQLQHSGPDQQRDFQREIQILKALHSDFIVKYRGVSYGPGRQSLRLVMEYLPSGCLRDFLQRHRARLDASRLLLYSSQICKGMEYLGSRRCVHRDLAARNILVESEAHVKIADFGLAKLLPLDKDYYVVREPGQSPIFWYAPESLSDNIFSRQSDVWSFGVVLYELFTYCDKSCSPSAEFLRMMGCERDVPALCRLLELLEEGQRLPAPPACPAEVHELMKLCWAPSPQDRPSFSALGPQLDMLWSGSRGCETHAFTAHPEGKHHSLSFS
The test can be described thus: Determination of IC50 of Janus Kinase (JAK) inhibition: JAK3, radioactive end-point assay with 33P-ATP. It counts as biochemical. To be noted: JAK3 kinase domain; ATP 1.5 uM, peptide 50 uM, 20 minutes, room temperature, 10% DMSO; read-out: Ic50 h-jak3(810-1124)-sf9-c:no additive.
As for `C[C@@H](NC(=O)c1c[nH]c2ncc(-c3nccs3)nc12)C(C)(C)O` [Example I-111, 2-Thiazol-2-yl-5H-pyrrolo[2,3-b]pyrazine-7-carboxylic acid ((R)-2-hydroxy-1,2-dimethyl-propyl)-amide], the IC50 was determined as 276 nM.

Take `Cc1ncccc1Oc1cnc2[nH]cc(C(=O)NC(C)C)c2n1` [Example I-280, 2-(2-Methyl-pyridin-3-yloxy)-5H-pyrrolo[2,3-b]pyrazine-7-carboxylic acid isopropylamide]: the IC50 is 3980 nM.

Consider `CCNC(=O)c1c[nH]c2ncc(Oc3cccc(OC(F)(F)F)c3)nc12` [Example I-246, 2-(3-Trifluoromethoxy-phenoxy)-5H-pyrrolo[2,3-b]pyrazine-7-carboxylic acid ethylamide], for which the IC50 was 3460 nM.

For `C[C@H](NC(=O)c1c[nH]c2ncc(C3CC3)nc12)C(C)(C)CS(C)(=O)=O` [Example I-144, 2-Cyclopropyl-5H-pyrrolo[2,3-b]pyrazine-7-carboxylic acid ((S)-3-methanesulfonyl-1,2,2-trimethyl-propyl)-amide], the IC50 is 3.4 nM.

With `CC(Cn1cccn1)NC(=O)c1ccc(-c2cnc3[nH]cc(C(=O)N[C@@H](C)C(C)(C)C)c3n2)s1` (stereo partly drawn) [Example I-158, 2-[5-(1-Methyl-2-pyrazol-1-yl-ethylcarbamoyl)-thiophen-2-yl]-5H-pyrrolo[2,3-b]pyrazine-7-carboxylic acid ((S)-1,2,2-trimethyl-propyl)-amide], the IC50 is 0.32 nM.

As to `CCC(CC)NC(=O)c1c[nH]c2ncc(C3CC3)nc12` [Example I-26, 2-Cyclopropyl-5H-pyrrolo[2,3-b]pyrazine-7-carboxylic acid (1-ethyl-propyl)-amide], the IC50 was 4.08 nM.

As for `CCc1ccccc1Oc1cnc2[nH]cc(C(=O)NC(C)C)c2n1` [Example I-238, 2-(2-Ethyl-phenoxy)-5H-pyrrolo[2,3-b]pyrazine-7-carboxylic acid isopropylamide], the IC50 amounted to 3850 nM.

As for `C[C@@H]1C[C@H]1c1cnc2[nH]cc(C(=O)NCC(C)(C)CO)c2n1` [Example I-43, 2-((1R,2R)-2-Methyl-cyclopropyl)-5H-pyrrolo[2,3-b]pyrazine-7-carboxylic acid (3-hydroxy-2,2-dimethyl-propyl)-amide], the IC50 amounted to 121 nM.

In the case of `CC(C)NC(=O)c1c[nH]c2ncc(Oc3cccc4c3OC(C)(C)C4)nc12` [Example I-254, 2-(2,2-Dimethyl-2,3-dihydro-benzofuran-7-yloxy)-5H-pyrrolo[2,3-b]pyrazine-7-carboxylic acid isopropylamide], the IC50 is 2990 nM.

Turning to `C[C@H](NC(=O)c1c[nH]c2ncc(-c3ccc(C(=O)N[C@H](C)C(C)(C)C)s3)nc12)C(C)(C)C` [Example I-209, 2-[5-((R)-1,2,2-Trimethyl-propylcarbamoyl)-thiophen-2-yl]-5H-pyrrolo[2,3-b]pyrazine-7-carboxylic acid ((S)-1,2,2-trimethyl-propyl)-amide], the concentration for half-maximal inhibition (IC50) was 0.47 nM.

Turning to `CC(C)[C@@H](C)NC(=O)c1c[nH]c2ncc(Oc3ccc(F)cc3F)nc12` [Example I-127, 2-(2,4-Difluoro-phenoxy)-5H-pyrrolo[2,3-b]pyrazine-7-carboxylic acid ((R)-1,2-dimethyl-propyl)-amide], the IC50 turned out to be 143 nM.

Take `CC(=O)N[C@@H]1CCc2ccc(Oc3cnc4[nH]cc(C(=O)NC(C)C#N)c4n3)cc21` (stereo partly drawn) [Example I-298, 2-((R)-3-Acetylamino-indan-5-yloxy)-5H-pyrrolo[2,3-b]pyrazine-7-carboxylic acid (cyano-methyl-methyl)-amide]: the half-maximal inhibitory concentration (IC50) was 387 nM.

`C[C@H](NC(=O)c1c[nH]c2ncc(-c3ccc(C(=O)NCc4cccc(C#N)c4)s3)nc12)C(C)(C)C` [Example I-227, 2-[5-(3-Cyano-benzylcarbamoyl)-thiophen-2-yl]-5H-pyrrolo[2,3-b]pyrazine-7-carboxylic acid ((S)-1,2,2-trimethyl-propyl)-amide]: the IC50 is 10.6 nM.

Usually IC50 stands for the concentration that gives 50% inhibition.
